From PMC10510511, “Dose–Response Activity-Based DNA-Encoded Library Screening” (ACS Medicinal Chemistry Letters, 2023)
Entries after “also recorded” stand apart in the source; their conditions may differ.

How the values were obtained:
[1] = tested on: FXa; design: method as in PMID 16161994; conditions: cited from earlier work
[2] = target: T1, autotaxin (ATX) (Homo sapiens, UniProt Q13822); assay: Biochemical assay for ATX hit validation (FS-3 substrate, microplate); conditions: for Maximum inhibition (%) / IC50: ATX; for IC50: relative IC50, 30 min preincubation, 25 °C, 4 parameter logistic fit
T1 construct: purchased Echelon Biosciences, Salt Lake City, UT
Description: (§1) 384-well black-bottom microplates (Corning Scientific, Corning, NY) in triplicate and […]
(§2) incubated (30 min, 25 °C). […]
Biochemical Assay for ATX Hit Validation […]
plate assay buffer). Compound dilutions (2.5 µL) were added to ATX (100 nM, 5 µL) in 384-well black-bottom microplates (Corning Scientific, Corning, NY) in triplicate and incubated (30 min, 25 °C). FS-3 (20 µM, 2.5 µL) was added and reaction progress was monitored immediately (λex = 483 nm, λem = 530 nm, 25 °C, CLARIOStar Plus, BMG LABTECH). The percent activity was taken as the slope of the fluorescence increase over […]
time (1–10 min) relative to that of a vehicle control. IC50 values were determined by fitting the data to a 4 parameter logistic model using nonlinear regression. […]
Vmax = [S]KM(1 + [I]Ki ) + [S]. […]
v = Vmax(1 + [I]/Ki)[S]. (3)
Rearranging to express relative velocity (v/Vmax):
Vmax = [S](KM + [S])(1 + [I]/Ki). (4)

[3] = target: T1, autotaxin (ATX); assay: ATX dose-response activity-based DEL screening in droplets, hit replicate count by sequencing; format: biochemical; conditions: for k-class (20% UV): ATX screen at 20% UV intensity; for k-class (100% UV): ATX screen at 100% UV intensity
Source text: (§3) fluorescence emission was detected by photon counting PMTs (H7828, Hamamatsu, Mid-dlesex, NJ) using a custom two-channel (520 and 570 nm) confocal LIF microscope with […]
(§4) code written in house collected signal data and determines droplet sorting decisions. The […]
(§5) Instruments), and binned into packets of counts (∆t = 0.1 ms). Median-filter smoothing (window width = 3) was applied to the signal in real-time. Droplet signal regions were identified by the 570-nm channel signal (countsn> 200) and 520-nm channel signal maxima (max = countsn−1 when countsn< countsn−1).
A dynamic sorting threshold was calculated in real-time to identify “hit droplets” with reduced 520-nm channel fluorescence. The dynamic threshold was calculated as µ - 4.5σ, where µ andσ were the mean and standard deviation of the last 1000 droplets’ fluorescence values, respectively. Hit droplets were excluded from the fluorescence values used to calculate population mean and standard deviation. When a hit droplet was detected (droplet fluorescence< µ – 4.5σ counts), LabVIEW output a TTL pulse from the DAQ […]
triggering a square wave pulse output (0–7.5 V, 10 kHz, 300 cycles) that was amplified […]
NY) and conducted through luer-lok needle-fitted and microbore tygon tubing filled with liquid metal (gallium:indium:tin alloy 62:22:16 (w%), Alfa Aeser) into a microfabricated […]
ATX Library Screening in Droplets
The ATX droplet screening assay was performed similarly to the FXa assay, but with ATX assay reagents. This was a modification of previously described protocols.4 AQ1 input contained fluorogenic ATX substrate FS-3 9 (10 µM), internal standard 5(6)-TAMRA (5 µM), […]
excised, eluted (C&S buffer, 100 µL, 100 rpm, ON), and pooled for Illumina sequencing at the UCI genomics high throughput facility (MiSeq v2 Nano or MiSeq v2 Micro, paired end).
DNA sequence pattern matching, aggregation by bead barcode, and unique molecular identifier (UMI) filtering were previously described. 3–5 Sequences with a UMI count≤ 5 were discarded. UV doses associated with hit sequences were filtered using the sequencing barcode (Table S5) introduced during library amplification. Of the remaining sequences, compound replicates (k class) were determined by taking the sum of the sequences having the same synthesis encoding region but distinct bead barcodes. […]
as §1, §2

[4] = target: T2, factor Xa (FXa) (Homo sapiens, UniProt P00742); assay: FXa dose-response activity-based DEL screening in droplets, hit replicate count by sequencing; format: biochemical; conditions: for k-class (30% UV): FXa screen at 30% UV intensity; for k-class (100% UV): FXa screen at 100% UV intensity
T2 construct: purchased R&D Systems, Minneapolis, MN
Description: FXa Library Screening in Droplets
DEL screening for FXa inhibitors was performed in droplets as previously described,4,8 with modifications. After ligating the closing primer, the library was prepared for droplet screening by exchanging into assay buffer, filtering through a 20 µm Celtrics filter, filter-ing through a previously described microfluidic device,4 and counting a dilution with a hemocytometer to determine bead density. AQ1 input contained fluorogenic FXa peptide substrate (6 µM), internal standard 5(6)-TAMRA (2 µM), DEL beads (∼1500 beads/µL), and a PTFE-encapsulated magnet (to agitate beads periodically; 3 mm dia., V&P Scientific, Inc., San Diego, CA) in FXa droplet assay buffer. AQ2 contained FXa (3.8 ng/µL,∼90 nM) in FXa droplet assay buffer.
OIL2 and OIL3 were neat Novec™ 7500.
UV dosing was delivered through a custom fiber optic cable7 controlled through Labview software (National Instruments, Austin, TX). Slight modifications were made to the pre-viously described confocal LIF detection system and LabVIEW code. 3,4 Briefly, droplet […]
as §3, §4, §5
A dynamic sorting threshold was calculated in real-time to identify “hit droplets” with reduced 520-nm channel fluorescence. The dynamic threshold was calculated as µ - 4.5σ, where µ andσ were the mean and standard deviation of the last 1000 droplets’ fluorescence values, respectively. Hit droplets were excluded from the fluorescence values used to calculate population mean and standard deviation. […]
DNA sequence pattern matching, aggregation by bead barcode, and unique molecular identifier (UMI) filtering were previously described. 3–5 Sequences with a UMI count≤ 5 were discarded. UV doses associated with hit sequences were filtered using the sequencing barcode (Table S5) introduced during library amplification. Of the remaining sequences, compound replicates (k class) were determined by taking the sum of the sequences having the same synthesis encoding region but distinct bead barcodes.

[5] = target: T2, factor Xa (FXa); assay: Biochemical assay for FXa hit validation (fluorogenic 5-FAM/QXL-520 substrate, microplate); conditions: for Maximum inhibition (%) / IC50: FXa; for IC50: 30 min preincubation, 25 °C, 4 parameter logistic fit
Description: Biochemical Assay for FXa Hit Validation […]
plate assay buffer). Compound dilutions (2.5 µL) were added to FXa (90 nM, 5 µL) in 384-well black-bottom microplates (Corning Scientific, Corning, NY) in triplicate and […]
as §2
added and reaction progress was monitored immediately (λex = 483 nm,λem = 530 nm, 25 °C, CLARIOStar Plus, BMG LABTECH, Ortenberg, Germany). The percent activity was taken as the slope of the fluorescence increase over time (1–10 min) relative to that of a vehicle control. IC50 values were determined by fitting the data to a 4 parameter logistic model using nonlinear regression. […]

T2 sequence (P00742 235-488 limits assumed): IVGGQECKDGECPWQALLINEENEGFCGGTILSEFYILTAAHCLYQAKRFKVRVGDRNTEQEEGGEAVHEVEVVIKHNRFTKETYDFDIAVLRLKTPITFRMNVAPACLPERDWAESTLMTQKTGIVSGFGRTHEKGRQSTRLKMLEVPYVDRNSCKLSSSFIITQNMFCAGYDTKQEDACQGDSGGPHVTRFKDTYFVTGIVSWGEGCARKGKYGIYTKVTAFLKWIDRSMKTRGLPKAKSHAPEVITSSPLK
T2 sequence (P00742 41-179 partner limits assumed): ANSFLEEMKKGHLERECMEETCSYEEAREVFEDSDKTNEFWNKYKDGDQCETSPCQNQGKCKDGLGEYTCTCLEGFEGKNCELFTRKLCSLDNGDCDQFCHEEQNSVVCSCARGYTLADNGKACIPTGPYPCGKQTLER

## NC(=O)Cn1c(=O)n(C2CCN(C(=O)c3cnn(CC4CCCCC4)c3)CC2)c2ccccc21 [Hit 16b]
[2]
  ATX inhibition (in words): inhibited ATX fully
  Maximum inhibition (%): 96%
  IC50: 13 ± 2 µM
[3]
  k-class (20% UV): 4
  k-class (100% UV): 2

## NC(=O)c1cccc(CNC(=O)c2csc(Cc3ccccc3)n2)c1 [Hit 12a]
[2]
  ATX inhibition (in words): least potent
  Maximum inhibition (%): 94%
  IC50: 28 ± 14 µM
[3]
  k-class (20% UV): 4
  k-class (100% UV): 8

## NC(=O)c1cccc(CNC(=O)[C@@H]2C[C@H]2c2ccccc2)c1 [Hit 12b]
[2]
  ATX inhibition (in words): false positive; also recorded: did not inhibit ATX
  IC50: > 300 µM
[3]
  k-class (20% UV): 2
  k-class (100% UV): 3

## Cc1cccn2cc(C(=O)NC3c4ccccc4CCc4cc(OCC(N)=O)ccc43)nc12 (stereo not drawn) [Hit 13a]
[2]
  Maximum inhibition (%): 57%
  IC50: 6 ± 1 µM
[3]
  k-class (20% UV): 0
  k-class (100% UV): 3

## NC(=O)COc1ccc2c(c1)CCc1ccccc1C2NC(=O)c1ccc(Cl)o1 (stereo not drawn) [Hit 13b]
[2]
  Maximum inhibition (%): 26%
  IC50: 6 ± 3 µM
[3]
  k-class (20% UV): 0
  k-class (100% UV): 3

## NC(=O)[C@@H](Cc1c[nH]c2ccccc12)NC(=O)c1ccc(N2CCCC2=O)cc1 [Hit 2a]
[4]
  k-class (30% UV): 9
  k-class (100% UV): 6
[5]
  Maximum inhibition (%): 95%
  IC50: 9 ± 0.3 µM

## NC(=O)c1cccc(CNC(=O)c2ccc(Cl)s2)c1 [Hit 5a]
[4]
  k-class (30% UV): 10
  k-class (100% UV): 8
[5]
  Maximum inhibition (%): 58%
  IC50: 19 ± 2 µM

## NC(=O)c1ccc2c(c1)CCN(C(=O)c1cnn(CC3CCCCC3)c1)C2 [Hit 17a]
[2]
  ATX inhibition (in words): inhibited ATX fully
  Maximum inhibition (%): 91%
  IC50: 1 ± 0.3 µM
[3]
  k-class (20% UV): 7
  k-class (100% UV): 6

## NC(=O)[C@@H](Cc1csc2ccccc12)NC(=O)c1ccc(N2CCOCC2)cc1 [Hit 1b]
[4]
  k-class (30% UV): 9
  k-class (100% UV): 4
[5]
  Maximum inhibition (%): 85%
  IC50: 7.4 ± 0.3 µM

## NC(=O)[C@@H]1CCCN1C1CCN(C(=O)c2cn3cc(Cl)ccc3n2)CC1 [Hit 3a]
[4]
  k-class (30% UV): 8
  k-class (100% UV): 9
[5]
  Maximum inhibition (%): 28%
  IC50: > 300 µM
[5]; at 100 μM
  FXa inhibition (in words): weakly inhibited FXa

## NC(=O)Cn1c(=O)n(C2CCN(C(=O)c3ccc(Cl)cc3C(F)(F)F)CC2)c2ccccc21 [Hit 16a]
[2]
  ATX inhibition (in words): inhibited ATX fully
  Maximum inhibition (%): 91%
  IC50: 7 ± 2 µM
[3]
  k-class (20% UV): 6
  k-class (100% UV): 4

## NC(=O)[C@@H](Cc1csc2ccccc12)NC(=O)c1ccc(N2CCCC2=O)cc1 [Hit 1a]
[4]
  k-class (30% UV): 14
  k-class (100% UV): 4
[5]
  Maximum inhibition (%): 93%
  IC50: 4.2 ± 0.1 µM
